Earlier results in PMC4955775 (Bioorganic & medicinal chemistry letters, 2016).
[ ]: non-standard residue; d: D form. Dmt = Cc1cc(O)cc(C)c1C[C@H](N)C(=O)O; Tic = O=C(O)[C@@H]1Cc2ccccc2CN1

Compound | duration of the antinociceptive effect, times longer than morphine [times] | fold increased binding affinity at μ receptor compared to TIPP-NH2 (μ receptor) [fold] | fold increased binding affinity at δ receptor compared to TIPP-NH2 (δ receptor) [fold]
Cc1cc(O)cc(C)c1C[C@H](N)C(=O)N[C@H](CCCNC(=N)N)C(=O)N[C@@H](Cc1ccccc1)C(=O)N[C@@H](CCCCN)C(N)=O [Compound 5, H-Dmt-D-Arg-Phe-Lys-NH2] | 4 | – | –
H-[Dmt][Tic]FF-NH2 [DIPP-NH2] | – | 65 | 25
